Key:
[1] = tested on: Human dermal fibroblasts; assay: Restoration of cell activity decreased by UV irradiation (AlamarBlue); format: cell-based; settings: FIG. 5
Protocol: (§1) 1. Human dermal fibroblasts and human skin keratinocytes purchased from Kurabo Industries Ltd. were used. A cell suspension (1 mL) stored in liquid nitrogen was thawed in a water bath (37° C.) to an extent that small ice pellets remained, and then diluted with 9 mL of warm medium. 2. The diluted suspension was mixed gently and then transferred to a T75 flask and incubated overnight at 37° C. 3. The next day, the medium was replaced with 10 mL of fresh medium. 4. The medium was replaced periodically (once every 2 days for fibroblasts and once every 2 to 3 days for keratinocytes) and cell proliferation was continued. Meanwhile, the cells were observed using a microscope, and it was confirmed that the cells grew in the correct form. 5. After the cells reached about 80% confluence, the cells were passaged. The cells were passaged by washing the cells once with 10 mL of warm PBS, adding 5 mL of warm trypsin to a T75 flask, covering the bottom of the flask with a trypsin solution, followed by aspirating at room temperature for 1 minute. 6. The flask was allowed to stand in an oven at 37° C. for (maximum) 2 minutes for fibroblasts and (maximum) 7 minutes for keratinocytes. The cells were observed using a microscope and confirmed to be small and oval. 7. Thereafter, the side of the T75 flask was lightly tapped to release the cells. […]

[2] = tested on: Human dermal fibroblasts; assay: Cell activity (AlamarBlue) of cells irradiated with UV through a solution of the UV wavelength conversion substance; format: cell-based; settings: UV 0 to 100 mJ/cm^2, FIG. 3
Protocol: The UV wavelength conversion substances (3) and (4) were dispersed in alcohol to prepare 5% and 10% dispersions.
as §1, with “7.” for “7. Thereafter, the side of the T75 flask was lightly tapped to release the cells.”

## C-phycocyanin
[1]; 0.4% versus 2% solution
  cell activity recovery effect, comparison of concentrations: equivalent at concentrations of 0.4% and 2%
[1]; pre-irradiation 400 mJ/cm^2 without substance, then UV 0 to 200 mJ/cm^2 through 0.4% or 2% solution
  cell activity of cells having activity temporarily reduced (relative fluorescence intensity): cell activity was recovered
[2]; 0.4% C-phycocyanin solution
  cell activity at UV irradiation (relative fluorescence intensity): the decrease in cell activity was suppressed
[2]; 2% C-phycocyanin solution, compared to no UV irradiation
  cell activity at UV irradiation (relative fluorescence intensity): the cell activity was even increased
